This is an account of results in ChEMBL document CHEMBL5154659, “A3 adenosine receptor agonists containing dopamine moieties for enhanced interspecies affinity” (Eur J Med Chem, 2022).

The nature of series [1]: Apparent permeability across apical to basolateral side in human Caco-2 cells. Format: ADME, cell-based. (In general: Caco-2 monolayers are a common model of the intestinal barrier.)
Series [2] in a line: Microsomal stability in Wistar rat plasma assessed as half life. In kind it is ADME, cell-free.
Series [3] concerns the target CYP2C19 (Homo sapiens, UniProt P33261). The experiment in a line: (§1) Inhibition of CYP2C19 (unknown origin). Format: ADME.
The nature of series [4]: Microsomal stability in human plasma assessed as half life. In kind it is ADME, cell-free.
Series [5] in a line: Half life in Wistar rat at 0.5 mg/kg, iv. In kind it is ADME, organism-based. The settings on record: in vivo.
Series [6] can be described thus: Aqueous solubility of compound at pH 7.4. In kind it is physicochemical.
For series [7], the target named is CYP2D6 (Homo sapiens, UniProt P10635). The experiment in a line: (§2) Inhibition of CYP2D6 (unknown origin). Format: ADME.
Series [8] has as its target Voltage-gated inwardly rectifying potassium channel KCNH2 (Homo sapiens, UniProt Q12809). The experiment in a line: Inhibition of human ERG. In kind it is toxicity.
Series [9] is described as follows: Microsomal stability in mouse plasma assessed as half life. Format: ADME, cell-free.
A short description of series [10]: Stability in mouse plasma assessed as parent compound remaining measured after 120 mins. Format: ADME, cell-free. The settings on record: 2 h.
The target of series [11] is T1, Adenosine receptor A1 (Mus musculus, UniProt Q60612).
T1 sequence (Q60612 whole entry): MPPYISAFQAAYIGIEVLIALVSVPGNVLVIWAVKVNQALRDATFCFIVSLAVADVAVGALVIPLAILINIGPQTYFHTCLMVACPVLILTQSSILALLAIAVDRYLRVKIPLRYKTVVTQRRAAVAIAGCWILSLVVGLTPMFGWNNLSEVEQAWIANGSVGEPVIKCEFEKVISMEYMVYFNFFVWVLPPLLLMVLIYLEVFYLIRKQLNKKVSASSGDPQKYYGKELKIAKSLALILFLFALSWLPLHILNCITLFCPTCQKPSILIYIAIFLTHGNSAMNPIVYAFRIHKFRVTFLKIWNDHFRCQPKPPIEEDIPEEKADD
Put plainly: Displacement of [3H] N6-R-phenylisopropyladenosine from mouse A1A receptor stably expressed in HEK293 cell membrane by radioligand inhibition assay. Format: cell membranes. On the technique in general: Loss of bound radioactivity is the signal in a displacement assay; it reports binding, not function.

Series [12] can be described thus: Efflux ratio of permeability in human Caco2 cells. Format: ADME, cell-based. The settings on record: caco-2.
Series [13] addresses T2, Cytochrome P450 1A2 (Homo sapiens, UniProt P05177).
T2 sequence (P05177 whole entry): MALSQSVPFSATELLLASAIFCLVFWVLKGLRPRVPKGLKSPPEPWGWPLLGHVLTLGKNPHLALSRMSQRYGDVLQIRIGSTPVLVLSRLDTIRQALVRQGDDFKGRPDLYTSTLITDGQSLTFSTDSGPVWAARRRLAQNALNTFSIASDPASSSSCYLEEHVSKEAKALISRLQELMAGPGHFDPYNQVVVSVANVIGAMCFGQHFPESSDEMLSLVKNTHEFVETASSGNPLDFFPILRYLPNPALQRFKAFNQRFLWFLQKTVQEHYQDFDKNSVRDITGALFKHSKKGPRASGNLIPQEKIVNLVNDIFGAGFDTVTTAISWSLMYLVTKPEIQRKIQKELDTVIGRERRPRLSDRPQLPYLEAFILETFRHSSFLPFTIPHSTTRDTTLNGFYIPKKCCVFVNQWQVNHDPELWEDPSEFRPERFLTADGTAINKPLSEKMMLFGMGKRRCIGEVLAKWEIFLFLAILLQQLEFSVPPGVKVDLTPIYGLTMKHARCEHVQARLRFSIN
Put plainly: Inhibition of CYP1A2 (unknown origin). Format: ADME.

The target in series [14] is T3, Adenosine receptor A2a (Homo sapiens, UniProt P29274). Put plainly: Binding affinity to human adenosine A2A receptor expressed in human HEK293 cell membrane at 10 uM by radioligand inhibition assay. Format: cell membranes.
For series [15], the target named is T4, Adenosine receptor A3 (Mus musculus, UniProt Q61618).
T4 sequence (Q61618 whole entry): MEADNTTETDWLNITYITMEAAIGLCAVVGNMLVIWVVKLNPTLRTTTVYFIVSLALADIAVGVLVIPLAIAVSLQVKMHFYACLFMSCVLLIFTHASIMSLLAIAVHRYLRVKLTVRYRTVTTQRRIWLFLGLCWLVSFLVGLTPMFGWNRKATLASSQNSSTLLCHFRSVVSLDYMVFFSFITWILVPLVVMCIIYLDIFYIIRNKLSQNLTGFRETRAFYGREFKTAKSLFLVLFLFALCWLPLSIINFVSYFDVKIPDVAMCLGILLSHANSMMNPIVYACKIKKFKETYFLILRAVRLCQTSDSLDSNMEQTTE
Put plainly: Displacement of [125I] N6-4-amino-3-iodobenzyl adenosine 5-N-methyluronamide from mouse A3A receptor stably expressed in HEK293 cell membrane by radioligand inhibition assay. In kind it is cell membranes.

Series [16] concerns the target T5, Adenosine receptor A1 (Homo sapiens) (UniProt P30542).
T5 sequence (whole entry): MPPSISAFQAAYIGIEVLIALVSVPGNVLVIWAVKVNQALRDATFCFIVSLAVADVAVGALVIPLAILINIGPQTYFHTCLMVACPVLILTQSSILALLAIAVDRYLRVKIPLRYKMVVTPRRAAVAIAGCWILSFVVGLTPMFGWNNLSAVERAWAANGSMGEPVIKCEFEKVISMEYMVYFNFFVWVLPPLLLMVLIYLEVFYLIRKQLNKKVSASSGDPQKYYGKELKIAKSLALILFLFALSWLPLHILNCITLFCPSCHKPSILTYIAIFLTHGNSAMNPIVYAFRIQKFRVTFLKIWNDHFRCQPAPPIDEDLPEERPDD
Put plainly: Binding affinity to human adenosine A1A receptor expressed in human HEK293 cell membrane at 10 uM by radioligand inhibition assay. In kind it is cell membranes.

Series [17] is described as follows: Stability of the compound in simulated intestinal fluid assessed as parent compound remaining at 120 mins. Format: ADME. The following applies: simulated gi fluid, 2 h.
The nature of series [18]: Stability of the compound in simulated gastric fluid assessed as parent compound remaining at 120 mins. Format: ADME. The settings on record: simulated gi fluid, 2 h.
Series [19] has as its target T6, Adenosine receptor A3 (Homo sapiens, UniProt P0DMS8).
T6 sequence (P0DMS8 whole entry): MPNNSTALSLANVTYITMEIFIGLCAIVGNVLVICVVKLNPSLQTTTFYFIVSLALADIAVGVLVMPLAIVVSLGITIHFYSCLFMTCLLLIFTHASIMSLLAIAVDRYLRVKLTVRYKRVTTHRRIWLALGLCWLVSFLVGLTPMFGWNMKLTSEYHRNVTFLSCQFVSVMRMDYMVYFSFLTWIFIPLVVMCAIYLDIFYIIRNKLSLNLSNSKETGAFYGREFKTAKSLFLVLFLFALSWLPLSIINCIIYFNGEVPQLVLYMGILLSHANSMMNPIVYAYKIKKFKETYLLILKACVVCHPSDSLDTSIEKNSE
Put plainly: Displacement of [125I] N6-(4-amino-3-iodobenzyl)adenosine-5'-N-methyluronamide from human A3A receptor stably expressed in HEK293 cell membrane by radioligand inhibition assay. Format: cell membranes.

Series [20] in a line: Stability in Wistar rat plasma assessed as parent compound remaining measured after 120 mins. Format: ADME, cell-free. The following applies: 2 h.
In series [21] the target is Cytochrome P450 2C19 (Homo sapiens, UniProt P33261). The series is described as §1. Format: ADME.
Series [22] concerns the target Cytochrome P450 3A4 (Homo sapiens, UniProt P08684). Put plainly: Inhibition of CYP3A4 (unknown origin). In kind it is ADME.
Series [23] is described as follows: Oral bioavailability in Wistar rat at 10 mg/kg. Format: ADME, organism-based. The following applies: in vivo.
The target of series [24] is Cytochrome P450 2D6 (Homo sapiens, UniProt P10635). The description is as §2. Format: ADME.
Series [25] is described as follows: Stability in human plasma assessed as parent compound remaining measured after 120 mins. Format: ADME, cell-free. The following applies: 2 h.
In series [26] the target is Cytochrome P450 2C9 (Homo sapiens, UniProt P11712). Put plainly: Inhibition of CYP2C9 (unknown origin). In kind it is ADME.
For series [27], the target named is T7, Adenosine receptor A1 (Homo sapiens, UniProt P30542).
T7 sequence (P30542 whole entry): T5 sequence (whole entry)
Put plainly: Displacement of [3H] N6-R-phenylisopropyladenosine from human A1A receptor stably expressed in HEK293 cell membrane by radioligand inhibition assay. In kind it is cell membranes.

For series [28], the target named is T3, Adenosine receptor A2a. Put plainly: Displacement of [3H]-2-p-2-(carboxyethyl)phenyl-ethylamino-5'-N-ethylcarboxamidoadenosine from human A2A receptor stably expressed in HEK293 cell membrane by radioligand inhibition assay. In kind it is cell membranes.
A short description of series [29]: Oral bioavailability in Wistar rat at 3 mg/kg. In kind it is ADME, organism-based. The following applies: in vivo.
The target of series [30] is T6, Adenosine receptor A3. The experiment in a line: Agonist activity at human adenosine A3A receptor stably expressed in HEK293 cells assessed as beta arrestin 2 recruitment potency by luciferase based NanoBiT assay. Format: functional, cell-based. Background: Arrestin recruitment assays detect the binding of arrestin to an activated receptor.
Series [31] concerns the target T6, Adenosine receptor A3. The experiment in a line: Agonist activity at human adenosine A3A receptor stably expressed in HEK293 cells assessed as mini G-alpha recruitment potency by luciferase based NanoBiT assay. Format: functional, cell-based.

Values after ≈ are worked out from the molar mass of the structure shown.

T3 sequence (P29274 whole entry): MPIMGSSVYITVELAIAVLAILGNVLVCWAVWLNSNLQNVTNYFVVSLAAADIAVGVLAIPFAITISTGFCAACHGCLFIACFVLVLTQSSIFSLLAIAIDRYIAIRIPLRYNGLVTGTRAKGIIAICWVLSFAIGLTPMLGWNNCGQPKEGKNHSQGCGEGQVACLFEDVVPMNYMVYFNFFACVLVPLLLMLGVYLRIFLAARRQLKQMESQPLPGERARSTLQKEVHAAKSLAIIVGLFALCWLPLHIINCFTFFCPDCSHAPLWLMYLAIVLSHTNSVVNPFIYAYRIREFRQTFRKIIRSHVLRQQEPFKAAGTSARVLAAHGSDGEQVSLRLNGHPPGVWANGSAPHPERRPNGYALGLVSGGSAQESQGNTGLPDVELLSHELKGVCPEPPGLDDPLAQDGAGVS
Sequence of Voltage-gated inwardly rectifying potassium channel KCNH2 (Q12809 whole entry): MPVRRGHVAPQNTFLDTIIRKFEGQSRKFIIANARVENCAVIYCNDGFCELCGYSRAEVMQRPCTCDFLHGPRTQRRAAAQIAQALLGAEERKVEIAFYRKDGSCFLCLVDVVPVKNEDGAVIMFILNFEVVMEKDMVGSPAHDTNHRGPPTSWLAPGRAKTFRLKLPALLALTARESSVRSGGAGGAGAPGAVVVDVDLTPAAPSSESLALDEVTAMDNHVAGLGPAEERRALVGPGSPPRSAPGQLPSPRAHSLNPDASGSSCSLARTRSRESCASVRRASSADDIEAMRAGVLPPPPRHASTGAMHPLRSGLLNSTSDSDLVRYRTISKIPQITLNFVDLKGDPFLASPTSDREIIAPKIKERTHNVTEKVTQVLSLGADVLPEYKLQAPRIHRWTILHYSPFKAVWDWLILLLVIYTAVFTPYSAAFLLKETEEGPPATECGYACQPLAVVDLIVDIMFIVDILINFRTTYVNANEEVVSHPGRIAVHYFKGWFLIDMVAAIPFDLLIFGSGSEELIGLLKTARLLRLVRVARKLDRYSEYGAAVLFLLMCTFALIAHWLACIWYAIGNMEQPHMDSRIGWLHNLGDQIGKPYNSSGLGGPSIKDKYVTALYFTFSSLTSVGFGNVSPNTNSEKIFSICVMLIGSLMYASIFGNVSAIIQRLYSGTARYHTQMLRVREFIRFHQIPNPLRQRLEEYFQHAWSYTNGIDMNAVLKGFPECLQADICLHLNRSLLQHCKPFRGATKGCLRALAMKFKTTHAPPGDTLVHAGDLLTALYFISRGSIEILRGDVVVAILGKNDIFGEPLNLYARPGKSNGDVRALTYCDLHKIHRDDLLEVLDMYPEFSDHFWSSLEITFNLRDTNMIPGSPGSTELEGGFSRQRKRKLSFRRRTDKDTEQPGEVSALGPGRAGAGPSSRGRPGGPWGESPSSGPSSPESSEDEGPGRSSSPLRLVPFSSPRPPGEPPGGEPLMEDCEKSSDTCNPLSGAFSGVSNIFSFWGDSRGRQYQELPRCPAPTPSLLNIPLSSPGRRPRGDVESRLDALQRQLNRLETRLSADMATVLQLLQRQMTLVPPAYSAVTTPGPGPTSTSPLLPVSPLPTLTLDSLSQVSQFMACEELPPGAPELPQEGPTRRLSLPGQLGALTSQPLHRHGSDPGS
Sequence of Cytochrome P450 2C9 (P11712 whole entry): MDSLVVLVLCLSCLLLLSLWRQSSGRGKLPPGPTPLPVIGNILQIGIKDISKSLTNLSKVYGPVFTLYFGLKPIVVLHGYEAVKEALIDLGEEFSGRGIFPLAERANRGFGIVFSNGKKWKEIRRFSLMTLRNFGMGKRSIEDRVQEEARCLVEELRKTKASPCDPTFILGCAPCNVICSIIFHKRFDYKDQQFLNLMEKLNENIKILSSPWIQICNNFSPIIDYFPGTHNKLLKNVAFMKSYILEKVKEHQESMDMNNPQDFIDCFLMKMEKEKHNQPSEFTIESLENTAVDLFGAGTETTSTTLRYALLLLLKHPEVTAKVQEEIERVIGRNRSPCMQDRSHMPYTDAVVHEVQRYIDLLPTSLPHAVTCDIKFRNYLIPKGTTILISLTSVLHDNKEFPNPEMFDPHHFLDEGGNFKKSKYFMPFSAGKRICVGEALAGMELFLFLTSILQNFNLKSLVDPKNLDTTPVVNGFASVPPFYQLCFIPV
Sequence of Cytochrome P450 2C19 (P33261 whole entry): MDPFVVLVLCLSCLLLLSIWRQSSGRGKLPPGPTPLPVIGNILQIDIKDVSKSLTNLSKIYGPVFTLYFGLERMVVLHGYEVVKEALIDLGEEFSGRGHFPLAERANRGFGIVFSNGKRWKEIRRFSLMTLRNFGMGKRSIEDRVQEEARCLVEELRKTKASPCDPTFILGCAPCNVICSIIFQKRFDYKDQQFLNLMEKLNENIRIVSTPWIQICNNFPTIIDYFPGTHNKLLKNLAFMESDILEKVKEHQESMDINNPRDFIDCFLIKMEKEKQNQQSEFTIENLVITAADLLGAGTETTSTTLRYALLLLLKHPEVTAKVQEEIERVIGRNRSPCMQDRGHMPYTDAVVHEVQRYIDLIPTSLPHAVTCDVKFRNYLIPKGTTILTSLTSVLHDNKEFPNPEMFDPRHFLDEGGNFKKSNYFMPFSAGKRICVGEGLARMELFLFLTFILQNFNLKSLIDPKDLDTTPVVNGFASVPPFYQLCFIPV
Sequence of Cytochrome P450 2D6 (P10635 whole entry): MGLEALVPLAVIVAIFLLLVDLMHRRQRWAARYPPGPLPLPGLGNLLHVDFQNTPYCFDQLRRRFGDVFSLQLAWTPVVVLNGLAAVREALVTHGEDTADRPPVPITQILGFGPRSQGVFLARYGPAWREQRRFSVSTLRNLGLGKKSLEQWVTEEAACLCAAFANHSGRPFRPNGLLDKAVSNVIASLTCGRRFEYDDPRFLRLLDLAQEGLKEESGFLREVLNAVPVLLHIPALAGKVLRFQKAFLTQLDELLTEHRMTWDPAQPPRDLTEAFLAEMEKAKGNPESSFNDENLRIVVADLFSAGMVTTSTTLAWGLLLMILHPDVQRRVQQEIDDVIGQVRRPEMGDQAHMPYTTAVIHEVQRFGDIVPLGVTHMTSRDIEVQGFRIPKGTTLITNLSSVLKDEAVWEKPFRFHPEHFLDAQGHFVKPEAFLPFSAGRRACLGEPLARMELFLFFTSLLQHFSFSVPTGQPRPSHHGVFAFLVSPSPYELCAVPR
Sequence of Cytochrome P450 3A4 (P08684 whole entry): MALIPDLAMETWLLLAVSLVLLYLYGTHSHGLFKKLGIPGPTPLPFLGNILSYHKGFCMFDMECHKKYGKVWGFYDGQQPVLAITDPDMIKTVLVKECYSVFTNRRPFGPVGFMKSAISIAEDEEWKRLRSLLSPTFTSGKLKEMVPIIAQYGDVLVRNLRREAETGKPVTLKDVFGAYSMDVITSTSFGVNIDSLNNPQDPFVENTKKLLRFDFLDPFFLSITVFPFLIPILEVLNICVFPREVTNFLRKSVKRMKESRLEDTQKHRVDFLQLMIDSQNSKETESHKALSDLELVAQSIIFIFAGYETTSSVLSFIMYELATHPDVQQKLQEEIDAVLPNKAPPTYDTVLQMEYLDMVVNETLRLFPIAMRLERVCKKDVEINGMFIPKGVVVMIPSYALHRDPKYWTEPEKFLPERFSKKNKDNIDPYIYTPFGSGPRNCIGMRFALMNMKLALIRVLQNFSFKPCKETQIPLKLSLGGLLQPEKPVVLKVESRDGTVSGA
Sequence of CYP2C19 (P33261 whole entry): as the sequence (P33261 whole entry) above
Sequence of CYP2D6 (P10635 whole entry): as the sequence (P10635 whole entry) above

By Papp A→B is commonly meant how fast a substance crosses the layer from the apical side. The half-life is the time in which the quantity being followed falls by half. By IC50 is commonly meant the concentration needed to halve the response being measured. A low value points to inhibition by little substance. For orientation: solubility means how much of the substance goes into solution per volume. For `COc1cc(CCNc2nc(C#Cc3ccccc3)nc3c2ncn3[C@H]2[C@H](O)[C@H](O)[C@@H]3C[C@@H]32)ccc1O`, in [1], the Papp A→B is 2.71 ×10⁻⁶ cm/s. In addition, the half-life in series [2] is 15.7 min; in series [4], 16.3 min; in [5] it was 16.4 min; in [9] it was 7.92 min. Also, the IC50 is above 30000 nM in series [3], above 30000 nM in series [7] and 5390 nM in series [8]. In addition, the solubility in series [6] (aqueous, read-out: solubility) was found to be 13 µg/mL (≈ 26.1 µM).
The term Ki denotes the equilibrium dissociation constant of an inhibitor or competing ligand from its target. High values mean a looser hold on the target, low ones a stronger hold on the target. The term inhibition denotes the drop in the measured response relative to a control, in per cent. A low value points to a response near the control. As usually defined, the bioavailability is the share of a dose that reaches the circulation, judged against a reference dose that is usually intravenous. A lower bioavailability goes with poor availability. Turning to `CNC(=O)[C@@]12C[C@@H]1[C@@H](n1cnc3c(NCCc4ccc(OC)c(OC)c4)nc(C#Cc4ccc(Cl)s4)nc31)[C@H](O)[C@@H]2O`, the Stability in [10], in series [17], in [18], in series [20] and in [25] was 100% each time. Moreover, the Papp in series [1] is given as 0.44 10^-6 cm/s. Further, the values for the Ki in [11], in series [15] and in series [19] were 7050 nM, 2.21 nM and 8.67 nM, respectively. For the same compound, in series [12], the Ratio was 46.6. The IC50 in [13] is 430 nM; in series [21] it was 15100 nM; in series [22], 780 nM; in series [24], 17700 nM; in [26], above 30000 nM; in series [8], 3650 nM. Besides, the half-life in [2] was 11.5 min; in [4] it was 2 min; in series [5], 43.9 min; in [9] it was 6.72 min. The inhibition worked out at 16% in [14] and 0% in series [16]. The compound further gave a bioavailability in series [23] of 1.88%. In addition, the solubility in [6] (buffer) came to 3.84 µg/mL (≈ 6.3 µM).
Consider `CNC(=O)[C@@]12C[C@@H]1[C@@H](n1cnc3c(NCCc4ccccc4)nc(I)nc31)[C@H](O)[C@@H]2O`, for which the Ki in series [11] was determined as 272 nM; in series [15] it was 1.69 nM; in series [19] it was 4.48 nM; in [27] it was 574 nM. The inhibition in series [14] turned out to be 39%.
For the compound `CNC(=O)[C@@]12C[C@@H]1[C@@H](n1cnc3c(NCCc4ccc(OC)c(O)c4)nc(OCC(C)C)nc31)[C@H](O)[C@@H]2O`, the Stability is 94.6% in series [10]; 64.5% in series [17]; 100% in [18]; 84.6% in series [20]; 56.9% in series [25]. Further, the Ki in series [11] amounted to 317 nM; in [28], 588 nM; in series [15], 17.6 nM. Further, the IC50 was 250 nM in [13]; above 30000 nM in series [21]; 830 nM in series [22]; above 30000 nM in series [24]; above 30000 nM in series [26]; 16500 nM in [8]. The half-life in series [2] was 22.5 min; in [4], 6.51 min; in [5] it was 101 min; in [9] it was 9.15 min. Moreover, the solubility in series [6] (buffer) was found to be 167 µg/mL (≈ 317 µM). In series [29], the bioavailability came out at 4.34%.
Broadly, the EC50 is the concentration at which the effect is half-maximal. Consider `CNC(=O)[C@@]12C[C@@H]1[C@@H](n1cnc3c(NCCc4ccc(OC)c(O)c4)nc(OC)nc31)[C@H](O)[C@@H]2O`, for which the Ki in series [28] was 10200 nM; in series [15], 5.43 nM; in series [19], 3.89 nM. Besides, in [16], the inhibition amounted to 59%. In addition, the figures for the EC50 in series [30] and in series [31] were 50.2 nM and 38.5 nM, respectively.
